Data on eleven compounds can be found in patent US20160046592A1, “PHARMACEUTICAL COMPOSITION FOR THE TREATMENT OF DIABETES” (Ajinomoto Co., Inc., priority 2013, published 2016).

The structures appear in SMILES notation. Where a name gives a salt, the structure may show the parent alone.

The target in the test is T1, PPAR-α (Homo sapiens, UniProt Q07869).
T1 construct: expressed in transfected cells; host or cells: CV-1 (African green monkey kidney)
T1 sequence (Q07869 167-468): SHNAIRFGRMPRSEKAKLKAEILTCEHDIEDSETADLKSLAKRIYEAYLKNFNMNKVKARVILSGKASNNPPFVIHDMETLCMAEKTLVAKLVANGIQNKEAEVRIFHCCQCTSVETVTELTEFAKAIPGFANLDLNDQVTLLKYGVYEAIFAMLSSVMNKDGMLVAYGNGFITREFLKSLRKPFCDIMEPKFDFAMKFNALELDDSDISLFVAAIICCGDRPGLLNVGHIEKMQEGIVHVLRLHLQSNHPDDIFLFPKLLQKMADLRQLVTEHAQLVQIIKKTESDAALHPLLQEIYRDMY
Description: Measurement of PPAR-α activity (GAL4 luciferase reporter assay in CV-1 cells). Type of test: cell-based. The following applies: 100(A/B): A = maximum PPAR-α activity of test compound at 3, 10, 30 and 100 μM, B = activity of the compound of WO/2011/058154 at 100 μM, 18 to 20 hours, read-out: Relative fold induction (%) of PPAR α. The method in brief: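 CV-1 cells were co-transfected with a UAS×5-TK-Luc reporter and a hGR-GAL4-hPPARα (LBD 167-468aa) expression plasmid, then dosed with compound for 18 to 20 h at 37 °C, with Bright-Glo luciferase read-out. Relative fold induction (%) is the maximum activity at 3, 10, 30 or 100 μM divided by the activity of a WO/2011/058154 reference compound at 100 μM.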
Regarding `O=C(O)CN(CC1CCOCC1)C(=O)c1cccc(COc2ccc(-c3cc(F)c(F)c4ccoc34)cc2)c1` [Example 9, 2-[[3-[[4-(4,5-Difluorobenzofuran-7-yl)phenoxy]methyl]benzoyl]-(tetrahydropyran-4-ylmethyl)amino]acetic Acid], the Emax came out at 24%.

Regarding `CS(=O)(=O)NCCN(CC(=O)O)C(=O)c1cccc(COc2ccc(-c3cc(F)c(F)c4ccoc34)cc2)c1` [Example 16, 2-[[3-[[4-(4,5-Difluorobenzofuran-7-yl)phenoxy]methyl]benzoyl]-[2-(methanesulfonamido)ethyl]amino]acetic Acid], the Emax was found to be 12%.

Regarding `CSc1cc(F)c(F)cc1-c1ccc(OCc2cccc(C(=O)N(CC(=O)O)Cc3cocn3)c2)cc1` [Example 52, 2-[[3-[[4-(4,5-Difluoro-2-methylsulfanyl-phenyl)phenoxy]methyl]benzoyl]-(oxazol-4-ylmethyl)amino]acetic Acid], the Emax was determined as 8.1%.

For `COCCCN(CC(=O)O)C(=O)c1cccc(COc2ccc(-c3cc(F)c(F)cc3SC)cc2)c1` [Example 30, 2-[[3-[[4-(4,5-Difluoro-2-methylsulfanyl-phenyl)phenoxy]methyl]benzoyl]-(3-methoxypropyl)amino]acetic Acid], the Emax is 83%.

As for `CSc1cc(F)c(F)cc1-c1ccc(OCc2cccc(C(=O)N(CCS(N)(=O)=O)CC(=O)O)c2)cc1` [Example 51, 2-[[3-[[4-(4,5-Difluoro-2-methylsulfanyl-phenyl)phenoxy]methyl]benzoyl]-(2-sulfamoylethyl)amino]acetic Acid], the Emax was determined as 5.8%.

In the case of `CSc1cc(F)c(F)cc1-c1ccc(OCc2cccc(C(=O)N(CC(=O)O)CC3CCS(=O)(=O)C3)c2)cc1` (centres unmarked) [Example 46, 2-[[3-[[4-(4,5-Difluoro-2-methylsulfanyl-phenyl)phenoxy]methyl]benzoyl]-[(1,1-dioxothiolan-3-yl)methyl]amino]acetic Acid], the Emax was determined as 4.6%.

Turning to `CSc1cc(F)c(F)cc1-c1ccc(OCc2cccc(C(=O)N(CC(=O)O)CC(=O)N3CCCC3)c2)cc1` [Example 25, 2-[[3-[[4-(4,5-Difluoro-2-methylsulfanyl-phenyl)phenoxy]methyl]benzoyl]-(2-oxo-2-pyrrolidin-1-yl-ethyl)amino]acetic Acid], the Emax turned out to be 13%.

For the compound `CSc1cc(F)c(F)cc1-c1ccc(OCc2cccc(C(=O)N(CC(=O)O)Cc3ncco3)c2)cc1` [Example 42, 2-[[3-[[4-(4,5-Difluoro-2-methylsulfanyl-phenyl)phenoxy]methyl]benzoyl]-(oxazol-2-ylmethyl)amino]acetic Acid], the Emax was found to be 13%.

For the compound `Cc1coc2c(-c3ccc(OCc4cccc(C(=O)N(CCS(C)(=O)=O)CC(=O)O)c4)cc3)cc(F)c(F)c12` [Example 14, 2-[[3-[[4-(4,5-Difluoro-3-methyl-benzofuran-7-yl)phenoxy]methyl]benzoyl]-(2-methylsulfonylethyl)amino]acetic Acid], the Emax was found to be 7.5%.

With `CCN(CC)CCN(CC(=O)O)C(=O)c1cccc(COc2ccc(-c3cc(F)c(F)cc3SC)cc2)c1` [Example 24, 2-[2-Diethylaminoethyl-[3-[[4-(4,5-difluoro-2-methylsulfanyl-phenyl)phenoxy]methyl]benzoyl]amino]acetic Acid Trifluoroacetate], the Emax amounted to 13%.

With `COC(C)(C)CN(CC(=O)O)C(=O)c1cccc(COc2ccc(-c3cc(F)c(F)cc3SC)cc2)c1` [Example 23, 2-[[3-[[4-(4,5-Difluoro-2-methylsulfanyl-phenyl)phenoxy]methyl]benzoyl]-(2-methoxy-2-methyl-propyl)amino]acetic Acid], the Emax was found to be 22%.
